The record followed here is patent publication US20240018158A1, “BRM TARGETING COMPOUNDS AND ASSOCIATED METHODS OF USE” (Prelude Therapeutics Incorporated, priority 2020, published 2024).

Where only a bound is given, the exact number is not on record here.

One experiment concerns the target SMARCA2 (Homo sapiens (Human), UniProt P51531). The experiment can be described thus: SMARCA2 HiBiT degradation assay in HeLa cells. In kind it is cell-based. As to conditions: 18 hours; for DC50: read-out: DC50 (SM2-HeLa) SMARCA2 degradation potency; for Dmax: read-out: Dmax % (SM2-HeLa) maximum SMARCA2 degradation within the concentrations tested. The procedure:
(§1) HiBiT peptide knock-in of SMARCA2 in LgBiT expressing HEK293T cells was performed by CRISPR-mediated tagging system as described Promega. The homozygous HiBiT knock-in on c-terminus SMARCA2 was confirmed by sanger sequence. SMARCA2-HiBiT knock-in Hela monoclonal cell (CS302366) and SMARCA4-HiBiT knock-in Hela monoclonal cell (CS3023226) were purchased from Promega. The heterozygous HiBiT-knock-in was confirmed by sanger sequence in both SMARCA2-HiBiT and SMARCA4-HiBiT monoclonal cells.
(§2) Dispense 10 μL aliquot of prepared Hela-SMARCA2-HiBiT or Hela-SMARCA4-HiBiT cells (1:1 ratio of cells:Trypan Blue (#1450013, Bio-Rad)) onto cell counting slide (#145-0011, Bio-Rad) and obtain cell density and cell viability using cell counter (TC20, Bio-Rad). Remove appropriate volume of resuspended cells from culture flask to accommodate 2500 cells/well @ 20 μL/well. Transfer Hela-HiBiT cells to 50 ml conical (#430290, Corning). Spin down at 1000 rpm for 5 min using tabletop centrifuge (SPINCHRON 15, Beckman). Discard supernatant and resuspend cell pellet in modified EMEM (#30-2003, ATCC) cell culture media containing 10% FBS (F2422-500ML, Sigma), and 1×Penicillin/Streptomycin (200 g/1) (30-002-CI, Corning) to a cell density of 125,000 cells/ml. Dispense 20 μL of resuspended Hela-HiBit cells per well in 384-well TC treated plate (#12-565-343, Thermo Scientific) using standard cassette (#50950372, Thermo Scientific) on Multidrop Combi (#5840310, Thermo Scientific) inside laminar flow cabinet. Dispense test compounds onto plates using digital liquid dispenser (D300E, Tecan). Incubate plates in humidified tissue culture incubator @37° C. for 18 hours. Add 20 ul of prepared Nano-Glo® HiBiT Lytic detection buffer (N3050, Promega) to each well of 384-well plate using small tube cassette (#24073295, Thermo Scientific) on Multidrop Combi, incubate @ RT for 30-60 min. Read plates on microplate reader (Envision 2105, PerkinElmer) using 384 well Ultra-Sensitive luminescence mode. Raw data files and compound information reports are swept into centralized data lake and deconvoluted using automated scripts designed by TetraScience, Inc. Data analysis, curve-fitting and reporting done in Dotmatics Informatics Suite using Screening Ultra module.

The next experiment deals with SMARCA4 (Homo sapiens (Human), UniProt P51532). Briefly: SMARCA4 HiBiT degradation assay in HeLa cells. In kind it is cell-based. Conditions: 18 hours; for DC50: read-out: DC50 (SM4-HeLa) SMARCA4 degradation potency; for Dmax: HeLa, read-out: Dmax % (SM4-HeLa) maximum SMARCA4 degradation within the concentrations tested. Here is the method:
as §1, §2

Sequence of SMARCA4 (P51532 whole entry): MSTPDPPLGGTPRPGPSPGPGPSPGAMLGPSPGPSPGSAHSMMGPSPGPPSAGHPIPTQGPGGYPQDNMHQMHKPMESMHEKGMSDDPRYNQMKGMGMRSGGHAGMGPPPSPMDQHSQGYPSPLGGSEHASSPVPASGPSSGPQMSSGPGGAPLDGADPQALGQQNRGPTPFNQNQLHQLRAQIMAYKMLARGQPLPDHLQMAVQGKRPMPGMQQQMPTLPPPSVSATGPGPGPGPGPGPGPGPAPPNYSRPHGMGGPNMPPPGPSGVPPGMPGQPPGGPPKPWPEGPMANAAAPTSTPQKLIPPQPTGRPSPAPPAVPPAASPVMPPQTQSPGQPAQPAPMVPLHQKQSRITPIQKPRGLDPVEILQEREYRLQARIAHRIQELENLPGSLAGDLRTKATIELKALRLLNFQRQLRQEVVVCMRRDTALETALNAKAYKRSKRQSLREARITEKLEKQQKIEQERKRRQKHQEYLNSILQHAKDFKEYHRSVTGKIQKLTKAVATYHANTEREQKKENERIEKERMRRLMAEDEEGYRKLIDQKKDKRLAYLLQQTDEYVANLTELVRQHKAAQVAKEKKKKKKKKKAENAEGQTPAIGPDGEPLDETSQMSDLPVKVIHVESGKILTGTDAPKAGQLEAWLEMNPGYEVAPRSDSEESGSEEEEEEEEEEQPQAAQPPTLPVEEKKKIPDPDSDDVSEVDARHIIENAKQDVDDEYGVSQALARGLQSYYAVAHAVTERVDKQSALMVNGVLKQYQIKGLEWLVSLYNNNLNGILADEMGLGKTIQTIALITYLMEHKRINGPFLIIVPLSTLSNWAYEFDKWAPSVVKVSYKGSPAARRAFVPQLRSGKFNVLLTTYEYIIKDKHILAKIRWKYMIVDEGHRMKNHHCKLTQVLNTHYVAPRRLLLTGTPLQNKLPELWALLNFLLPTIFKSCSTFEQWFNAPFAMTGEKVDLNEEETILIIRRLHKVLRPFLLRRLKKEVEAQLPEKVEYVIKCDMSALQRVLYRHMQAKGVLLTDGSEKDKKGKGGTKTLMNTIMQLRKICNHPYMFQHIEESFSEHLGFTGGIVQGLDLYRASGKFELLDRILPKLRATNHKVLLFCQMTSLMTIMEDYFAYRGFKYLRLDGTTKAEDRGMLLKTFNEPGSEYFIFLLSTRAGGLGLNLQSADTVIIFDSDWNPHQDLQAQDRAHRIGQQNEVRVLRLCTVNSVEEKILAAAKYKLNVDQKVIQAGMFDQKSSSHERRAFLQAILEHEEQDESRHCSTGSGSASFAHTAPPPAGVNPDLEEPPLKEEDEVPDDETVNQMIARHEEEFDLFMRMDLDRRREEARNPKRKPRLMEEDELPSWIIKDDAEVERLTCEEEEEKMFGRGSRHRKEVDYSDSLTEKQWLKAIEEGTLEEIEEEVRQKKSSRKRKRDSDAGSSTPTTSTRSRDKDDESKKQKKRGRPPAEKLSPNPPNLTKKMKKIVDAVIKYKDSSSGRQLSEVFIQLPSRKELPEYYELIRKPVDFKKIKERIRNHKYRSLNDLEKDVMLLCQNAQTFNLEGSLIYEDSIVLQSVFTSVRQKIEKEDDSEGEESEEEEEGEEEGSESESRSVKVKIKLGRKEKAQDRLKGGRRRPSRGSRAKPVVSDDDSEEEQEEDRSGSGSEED
Sequence of SMARCA2 (P51531 whole entry): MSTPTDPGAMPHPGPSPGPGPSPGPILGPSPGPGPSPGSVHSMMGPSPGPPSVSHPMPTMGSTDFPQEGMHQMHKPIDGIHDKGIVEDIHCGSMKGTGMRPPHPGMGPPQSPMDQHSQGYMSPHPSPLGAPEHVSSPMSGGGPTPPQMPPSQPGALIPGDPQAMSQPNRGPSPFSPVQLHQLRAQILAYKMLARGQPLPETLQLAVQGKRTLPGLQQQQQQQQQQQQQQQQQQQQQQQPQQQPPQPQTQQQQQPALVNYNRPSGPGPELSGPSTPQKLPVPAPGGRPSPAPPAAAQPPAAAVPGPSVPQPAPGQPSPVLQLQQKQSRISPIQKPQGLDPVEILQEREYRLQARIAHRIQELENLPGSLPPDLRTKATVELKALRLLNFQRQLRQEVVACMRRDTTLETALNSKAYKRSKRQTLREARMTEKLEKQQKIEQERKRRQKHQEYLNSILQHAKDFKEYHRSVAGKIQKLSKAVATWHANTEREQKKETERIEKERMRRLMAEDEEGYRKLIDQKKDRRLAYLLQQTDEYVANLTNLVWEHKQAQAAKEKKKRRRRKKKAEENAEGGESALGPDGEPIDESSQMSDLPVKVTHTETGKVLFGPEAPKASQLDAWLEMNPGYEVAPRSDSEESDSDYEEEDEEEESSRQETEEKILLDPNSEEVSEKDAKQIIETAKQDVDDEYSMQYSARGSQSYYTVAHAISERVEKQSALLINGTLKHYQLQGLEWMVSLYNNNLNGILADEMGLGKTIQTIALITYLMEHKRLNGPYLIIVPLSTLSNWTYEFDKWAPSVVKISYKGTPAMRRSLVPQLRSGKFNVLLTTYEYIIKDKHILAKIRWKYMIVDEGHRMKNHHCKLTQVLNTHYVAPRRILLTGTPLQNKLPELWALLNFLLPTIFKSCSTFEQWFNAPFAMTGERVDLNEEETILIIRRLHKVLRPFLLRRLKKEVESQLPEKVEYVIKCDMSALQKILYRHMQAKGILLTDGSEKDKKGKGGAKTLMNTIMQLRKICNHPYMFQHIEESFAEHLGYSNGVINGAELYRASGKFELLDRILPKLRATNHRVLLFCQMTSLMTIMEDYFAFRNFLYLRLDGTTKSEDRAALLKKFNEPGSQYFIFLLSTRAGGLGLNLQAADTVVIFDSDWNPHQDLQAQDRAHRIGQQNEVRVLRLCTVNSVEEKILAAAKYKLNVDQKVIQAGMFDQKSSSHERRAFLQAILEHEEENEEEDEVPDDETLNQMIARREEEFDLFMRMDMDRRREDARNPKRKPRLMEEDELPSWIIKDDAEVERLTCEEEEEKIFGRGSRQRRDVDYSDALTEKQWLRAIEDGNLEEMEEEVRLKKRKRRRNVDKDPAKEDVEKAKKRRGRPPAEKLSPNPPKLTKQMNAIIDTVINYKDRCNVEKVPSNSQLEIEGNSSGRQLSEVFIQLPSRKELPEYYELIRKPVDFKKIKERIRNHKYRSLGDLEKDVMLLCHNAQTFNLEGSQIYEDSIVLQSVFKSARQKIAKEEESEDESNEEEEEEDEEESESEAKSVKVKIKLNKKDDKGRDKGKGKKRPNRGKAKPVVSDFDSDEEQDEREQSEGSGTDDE

Turning to `Cc1ncsc1-c1ccc([C@H](C)NC(=O)[C@@H]2C[C@@H](O)CN2C(=O)[C@@H](c2cc(OCCN3CCC(N4CCN5c6cc(-c7ccccc7O)nnc6NC[C@H]5C4)C(C)C3)no2)C(C)C)cc1` (single isomer, unassigned) [Example 55], on SMARCA2, the DC50 is under 100 nM and the Dmax was over 75%. Moreover, on SMARCA4, the DC50 was under 100 nM and the Dmax is over 75%.

For `Cc1ncsc1-c1ccc([C@H](C)NC(=O)[C@@H]2C[C@@H](O)CN2C(=O)[C@@H](c2cc(OCCN3CCC(C(C)N4CCN5c6cc(-c7ccccc7O)nnc6NC[C@H]5C4)CC3)no2)C(C)C)cc1` (single isomer, unassigned) [Example 58], at SMARCA2, the DC50 is under 100 nM and the Dmax is over 75%. At SMARCA4, the DC50 is under 100 nM and the Dmax was over 75%.

For the molecule `Cc1ncsc1-c1ccc([C@H](C)NC(=O)[C@@H]2C[C@@H](O)CN2C(=O)[C@@H](c2cc(OCCN3CCC(C(C)N4CCN5c6cc(-c7ccccc7O)nnc6NC[C@H]5C4)CC3)no2)C(C)C)cc1` (single isomer, unassigned) [Example 59], the DC50 at SMARCA2 and on SMARCA4 was under 100 nM throughout.

In the case of `Cc1ncsc1-c1ccc([C@H](C)NC(=O)[C@@H]2C[C@@H](O)CN2C(=O)[C@@H](c2cc(OCCN3CCC(N4CCC(N5CCN6c7cc(-c8ccccc8O)nnc7NC[C@H]6C5)C4)CC3)no2)C(C)C)cc1` (single isomer, unassigned) [Example 69], on SMARCA2, the DC50 was under 100 nM and the Dmax was over 75%. In addition, at SMARCA4, the DC50 was under 100 nM and the Dmax was over 75%.

Turning to `Cc1ncsc1-c1ccc([C@H](C)NC(=O)[C@@H]2C[C@@H](O)CN2C(=O)[C@@H](c2cc(OCCN3CCC(N4CCC(N5CCN6c7cc(-c8ccccc8O)nnc7NC[C@H]6C5)C4)CC3)no2)C(C)C)cc1` (single isomer, unassigned) [Example 70], the DC50 at SMARCA2 and on SMARCA4 was under 100 nM in each case.

On to `Cc1ncsc1-c1ccc([C@H](C)NC(=O)[C@@H]2C[C@@H](O)CN2C(=O)[C@@H](c2cc(OCCN3CCCC(CN4CCN5c6cc(-c7ccccc7O)nnc6NC[C@H]5C4)C3)no2)C(C)C)cc1` (single isomer, unassigned) [Example 86], for which, at SMARCA2, the DC50 is under 100 nM and the Dmax was over 75%. For the same molecule, at SMARCA4, the DC50 was under 100 nM and the Dmax was over 75%.

Take `Cc1ncsc1-c1ccc([C@H](C)NC(=O)[C@@H]2C[C@@H](O)CN2C(=O)[C@@H](c2cc(OCCN3CCC(N4CCC(N5CCN6c7cc(-c8ccccc8O)nnc7NC[C@H]6C5)CC4)C3)no2)C(C)C)cc1` (stereo partly drawn) [Example 25, (2S,4R)-4-hydroxy-1-((2R)-2-(3-(2-(3-(4-((S)-2-(2-hydroxyphenyl)-5,6,6a,7,9,10-hexahydro-8H-pyrazino[1′,2′:4,5]pyrazino[2,3-c]pyridazin-8-yl)piperidin-1-yl)pyrrolidin-1-yl)ethoxy)isoxazol-5-yl)-3-methylbutanoyl)-N-((S)-1-(4-(4-methylthiazol-5-yl)phenyl)ethyl)pyrrolidine-2-carboxamide]: on SMARCA2, the DC50 is under 100 nM and the Dmax was over 75%. In addition, on SMARCA4, the DC50 fell in the range of 100 to 1000 nM and the Dmax lay within 50 to 75%.

As to `Cc1ncsc1-c1ccc([C@H](C)NC(=O)[C@@H]2C[C@@H](O)CN2C(=O)[C@@H](c2cc(OCCN3CCC(N4CCC(N5CCN6c7cc(-c8ccccc8O)nnc7NC[C@H]6C5)CC4)C3)no2)C(C)C)cc1` (stereo partly drawn) [Example 26, (2S,4R)-4-hydroxy-1-((2R)-2-(3-(2-(3-(4-((S)-2-(2-hydroxyphenyl)-5,6,6a,7,9,10-hexahydro-8H-pyrazino[1′,2′:4,5]pyrazino[2,3-c]pyridazin-8-yl)piperidin-1-yl)pyrrolidin-1-yl)ethoxy)isoxazol-5-yl)-3-methylbutanoyl)-N-((S)-1-(4-(4-methylthiazol-5-yl)phenyl)ethyl)pyrrolidine-2-carboxamide], the results for the DC50 on SMARCA2 and on SMARCA4 were under 100 nM and 100 to 1000 nM, respectively.

In the case of `Cc1ncsc1-c1ccc([C@H](C)NC(=O)[C@@H]2C[C@@H](O)CN2C(=O)[C@@H](c2cc(O[C@@H](C)C(=O)N3CCC(N4CCN5c6cc(-c7ccccc7O)nnc6NC[C@H]5C4)CC3)no2)C(C)C)cc1` [Example 27, (2S,4R)-4-hydroxy-1-((R)-2-(3-(((S)-1-(4-((S)-2-(2-hydroxyphenyl)-5,6,6a,7,9,10-hexahydro-8H-pyrazino[1′,2′:4,5]pyrazino[2,3-c]pyridazin-8-yl)piperidin-1-yl)-1-oxopropan-2-yl)oxy)isoxazol-5-yl)-3-methylbutanoyl)N-((S)-1-(4-(4-methylthiazol-5-yl)phenyl)ethyl)pyrrolidine-2-carboxamide], on SMARCA2, the DC50 is under 100 nM and the Dmax is over 75%. Besides, on SMARCA4, the DC50 lay within 100 to 1000 nM and the Dmax fell in the range of 50 to 75%.

As for `Cc1ncsc1-c1ccc([C@H](C)NC(=O)[C@@H]2C[C@@H](O)CN2C(=O)C(c2cc(O[C@H](C)C(=O)N3CCC(N4CCN5c6cc(-c7ccccc7O)nnc6NC[C@H]5C4)C3)no2)C(C)C)cc1` (stereo partly drawn) [Example 28, (2S,4R)-4-hydroxy-1-(2-(3-(((2R)-1-(3-((S)-2-(2-hydroxyphenyl)-5,6,6a,7,9,10-hexahydro-8H-pyrazino[1′,2′:4,5]pyrazino[2,3-c]pyridazin-8-yl)pyrrolidin-1-yl)-1-oxopropan-2-yl)oxy)isoxazol-5-yl)-3-methylbutanoyl)-N-((S)-1-(4-(4-methylthiazol-5-yl)phenyl)ethyl)pyrrolidine-2-carboxamide], on SMARCA2, the DC50 was under 100 nM and the Dmax was over 75%. Besides, on SMARCA4, the DC50 lay in the range of 100 to 1000 nM and the Dmax is at most 50%.

Take `Cc1ncsc1-c1ccc([C@H](C)NC(=O)[C@@H]2C[C@@H](O)CN2C(=O)C(c2cc(O[C@H](C)C(=O)N3CCC(N4CCN5c6cc(-c7ccccc7O)nnc6NC[C@H]5C4)C3)no2)C(C)C)cc1` (stereo partly drawn) [Example 29, (2S,4R)-4-hydroxy-1-(2-(3-(((2R)-1-(3-((S)-2-(2-hydroxyphenyl)-5,6,6a,7,9,10-hexahydro-8H-pyrazino[1′,2′:4,5]pyrazino[2,3-c]pyridazin-8-yl)pyrrolidin-1-yl)-1-oxopropan-2-yl)oxy)isoxazol-5-yl)-3-methylbutanoyl)-N-((S)-1-(4-(4-methylthiazol-5-yl)phenyl)ethyl)pyrrolidine-2-carboxamide]: the DC50 on SMARCA2 was under 100 nM; at SMARCA4, 100 to 1000 nM.

Turning to `Cc1ncsc1-c1ccc([C@H](C)NC(=O)[C@@H]2C[C@@H](O)CN2C(=O)C(c2cc(CCN(C)CCN3CCN4c5cc(-c6ccccc6O)nnc5NC[C@H]4C3)no2)C(C)C)cc1` (stereo partly drawn) [Example 34, (2S,4R)-4-hydroxy-1-(2-(3-(2-((2-((S)-2-(2-hydroxyphenyl)-5,6,6a,7,9,10-hexahydro-8H-pyrazino[1′,2′:4,5]pyrazino[2,3-c]pyridazin-8-yl)ethyl)(methyl)amino)ethyl)isoxazol-5-yl)-3-methylbutanoyl)N-((S)-1-(4-(4-methylthiazol-5-yl)phenyl)ethyl)pyrrolidine-2-carboxamide], on SMARCA2, the DC50 is under 100 nM and the Dmax is over 75%. Moreover, at SMARCA4, the DC50 is at least 10000 nM and the Dmax is at most 50%.

In the case of `Cc1ncsc1-c1ccc([C@H](C)NC(=O)[C@@H]2C[C@@H](O)CN2C(=O)[C@@H](c2cc(OCCN3CCC(CN4CCN5c6cc(-c7ccccc7O)nnc6NC[C@H]5C4)CC3)no2)C(C)C)cc1` [Example 38, (2S,4R)-4-hydroxy-1-((R)-2-(3-(2-(4-(((S)-2-(2-hydroxyphenyl)-5,6,6a,7,9,10-hexahydro-8H-pyrazino[1′,2′:4,5]pyrazino[2,3-c]pyridazin-8-yl)methyl)piperidin-1-yl)ethoxy)isoxazol-5-yl)-3-methylbutanoyl)-N-((S)-1-(4-(4-methylthiazol-5-yl)phenyl)ethyl)pyrrolidine-2-carboxamide], at SMARCA2, the DC50 was under 100 nM and the Dmax is over 75%. On SMARCA4, the DC50 is under 100 nM and the Dmax was over 75%.
